# Test results reported in PMC10330135 (Chemistry (Weinheim an der Bergstrasse, Germany), 2023).
# Tests used:
# Assay type in all cases: biochemical
# PtmJ = biological target: T1, PtmJ (Streptomyces pactum, UniProt A8R0J5); assay: enzymatic glycosylation
# T1 sequence (A8R0J5 1-318): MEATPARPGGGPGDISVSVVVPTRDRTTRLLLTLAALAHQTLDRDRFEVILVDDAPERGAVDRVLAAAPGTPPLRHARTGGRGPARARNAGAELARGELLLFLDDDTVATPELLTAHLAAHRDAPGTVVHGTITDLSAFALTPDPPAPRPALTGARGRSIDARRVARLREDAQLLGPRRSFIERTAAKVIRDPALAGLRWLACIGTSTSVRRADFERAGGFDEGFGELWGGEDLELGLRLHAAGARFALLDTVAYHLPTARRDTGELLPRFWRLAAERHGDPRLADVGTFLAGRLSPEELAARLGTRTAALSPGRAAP
# PtmN = biological target: T2, PtmN (Streptomyces pactum, UniProt A8R0J9); assay: mass spectrometry of product; conditions: NAD+; cofactor recycling as for GlcNAc-3AAP
# T2 sequence (A8R0J9 1-351): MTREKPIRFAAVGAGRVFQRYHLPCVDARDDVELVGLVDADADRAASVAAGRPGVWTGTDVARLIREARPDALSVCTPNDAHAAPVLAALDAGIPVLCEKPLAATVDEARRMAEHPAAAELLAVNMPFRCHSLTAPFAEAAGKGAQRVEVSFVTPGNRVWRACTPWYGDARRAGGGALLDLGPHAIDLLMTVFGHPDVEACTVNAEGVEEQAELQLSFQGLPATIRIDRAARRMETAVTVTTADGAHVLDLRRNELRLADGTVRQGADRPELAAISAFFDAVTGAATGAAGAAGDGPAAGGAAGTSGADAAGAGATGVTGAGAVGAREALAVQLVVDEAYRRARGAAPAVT
# PtmG = biological target: T3, PtmG (Streptomyces pactum, UniProt A8R0J2); assay: mass spectrometry of substrate consumption; conditions: formed in situ by PtmN, PtmA and PtmB; 10 h with PtmG
# T3 sequence (A8R0J2 1-378): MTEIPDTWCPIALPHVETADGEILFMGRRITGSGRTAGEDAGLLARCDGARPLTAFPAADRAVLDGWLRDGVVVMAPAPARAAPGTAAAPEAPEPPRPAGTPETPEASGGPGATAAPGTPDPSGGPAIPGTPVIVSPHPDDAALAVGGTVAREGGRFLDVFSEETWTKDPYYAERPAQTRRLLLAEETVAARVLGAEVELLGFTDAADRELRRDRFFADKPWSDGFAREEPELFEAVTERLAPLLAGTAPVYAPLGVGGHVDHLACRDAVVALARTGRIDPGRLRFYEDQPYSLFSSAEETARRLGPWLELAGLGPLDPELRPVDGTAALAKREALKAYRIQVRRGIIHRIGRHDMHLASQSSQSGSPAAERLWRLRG
compound,measurement,setting,value
CC(=O)NCCSC(=O)c1cccc(N)c1 [3ABA-SNAC],enzymatic glycosylation; product used in the next reactions,PtmJ,The 3ABA-SNAC was first glycosylated with the glycosyltransferase PtmJ
"CC(=O)NCCSC(=O)c1cccc(N[C@@H]2O[C@H](CO)[C@@H](O)[C@H](O)[C@H]2NC(C)=O)c1 [compound 15, GlcNAc-3ABA-SNAC]",mass spectrometry of product,PtmN,reaction of GlcNAc-3ABA-SNAC with PtmN showed an oxidation product
"CC(=O)N[C@@H]1[C@@H](NC(N)=O)[C@H](O)[C@@H](CO)O[C@H]1Nc1cccc(C(C)=O)c1 [compound 20, N-carbamoylated GlcNAc-3AAP]",mass spectrometry of substrate consumption,PtmG,"after incubation with PtmG, the carbamoylated GlcNAc-3AAP was partially consumed"
